Data: PubChem BioAssay AID1259411 (Chemical Carcinogenesis Research Information System (CCRIS), 2018)
Calls of active or inactive are those of the source. The rule behind the calls is not given here.

Test system: rodent carcinogenicity bioassays, tumor incidence
Experiment: CCRIS carcinogenicity studies
Summary of the method: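 Archive of carcinogenicity, mutagenicity, tumor promotion and tumor inhibition results drawn from journals, NCI reports and other sources, expert-reviewed; covers 1985-2011 and is no longer updated.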

## CNC(=O)CSP(=S)(OC)OC
Species: MOUSE, Strain/Sex: B6C3F1/FEMALE, Route: ORAL, Dose: 0, 250, 500 PPM IN DIET, Dose: 0, 250, 500 PPM IN DIET
  carcinogen call: inactive; negative
Species: MOUSE, Strain/Sex: B6C3F1/MALE, Route: ORAL, Dose: 0, 250, 500 PPM IN DIET, Dose: 0, 250, 500 PPM IN DIET
  carcinogen call: inactive; negative
Species: RAT, Strain/Sex: OSBORNE-MENDEL/FEMALE, Route: ORAL, Dose: 0, 192, 384 PPM IN DIET, TWA, Dose: 0, 192, 384 PPM IN DIET, TWA
  carcinogen call: inactive; negative
Species: RAT, Strain/Sex: OSBORNE-MENDEL/MALE, Route: ORAL, Dose: 0, 155, 310 PPM IN DIET, TWA
  carcinogen call: inactive; negative
Species: RAT, Strain/Sex: WISTAR/FEMALE, Route: ORAL, Dose: 0, 2, 20, 200 PPM IN DIET FOR 2 YR (STUDY DURATION: 2 YR), Dose: 0, 2, 20, 200 PPM IN DIET FOR 2 YR (STUDY DURATION: 2 YR)
  carcinogen call: inactive; negative
Species: RAT, Strain/Sex: WISTAR/MALE, Route: ORAL, Dose: 0, 2, 20, 200 PPM IN DIET FOR 2 YR (STUDY DURATION 2 YR), Dose: 0, 2, 20, 200 PPM IN DIET FOR 2 YR (STUDY DURATION 2 YR)
  carcinogen call: inactive; negative

## O=NN1CCCCC1
Species: HAMSTER, Route: SUBCUTANEOUS, Tumor Site: Type of Lesion: TRACHEA, NASAL CAVITY, ESOPHAGUS, FORESTOMACH, LUNG, LIVER, Tumor Site: Type of Lesion: TRACHEA, NASAL CAVITY, ESOPHAGUS, FORESTOMACH, LUNG, LIVER
  carcinogen call: active; positive
Species: HAMSTER, Strain/Sex: SYRIAN/MALE,FEMALE, Route: ORAL, Dose: 0.006, 0.025, 0.05% IN DRINKING WATER FOR LIFE, Dose: 0.006, 0.025, 0.05% IN DRINKING WATER FOR LIFE, Tumor Site: Type of Lesion: RESPIRATORY TRACT (LARYNX, PHARYNX, TRACHEA): PAPILLOMA, EPIDERMOID CARCINOMA, PAPILLARY POLYP, FORESTOMACH: PAPILLOMA
  carcinogen call: active; positive
Species: MONKEY, Route: ORAL, Tumor Site: Type of Lesion: LIVER
  carcinogen call: active; positive
Species: MOUSE, Route: INTRAPERITONEAL, Tumor Site: Type of Lesion: LUNG
  carcinogen call: active; positive
Species: MOUSE, Route: ORAL, Tumor Site: Type of Lesion: FORESTOMACH, LIVER, LUNG, Tumor Site: Type of Lesion: FORESTOMACH, LIVER, LUNG
  carcinogen call: active; positive
Species: RAT, Route: INTRAVENOUS, Tumor Site: Type of Lesion: ESOPHAGUS, PHARYNX
  carcinogen call: active; positive
Species: RAT, Route: ORAL, Tumor Site: Type of Lesion: ESOPHAGUS, LIVER
  carcinogen call: active; positive
Species: RAT, Route: SUBCUTANEOUS, Tumor Site: Type of Lesion: ESOPHAGUS, NASAL CAVITY
  carcinogen call: active; positive
Species: RAT, Strain/Sex: F344/FEMALE, Route: ORAL, Dose: 0.9 MILLIMOLAR SOLUTION (100 MG/L) IN DRINKING WATER 5/WK FOR 28 WK, Tumor Site: Type of Lesion: ESOPHAGUS: PAPILLOMA, CARCINOMA
  carcinogen call: active; positive

## C=CCO
Species: HAMSTER, Strain/Sex: SYRIAN/MALE, Route: GAVAGE, Dose: 0, 2 MG/WK FOR 60 WK (STUDY DURATION: 92 WK)
  carcinogen call: inactive; negative
Species: RAT, Strain/Sex: F344/FEMALE, Route: ORAL, Dose: 0, 300 MG/L IN DRINKING WATER 5 D/WK FOR 100 WK (STUDY DURATION: 130 WK)
  carcinogen call: inactive; negative
Species: RAT, Strain/Sex: F344/MALE, Route: ORAL, Dose: 0, 300 MG/L IN DRINKING WATER 5 D/WK FOR 100 WK (STUDY DURATION: 130 WK)
  carcinogen call: inactive; negative

## CNC(=O)c1c(N(C)N=O)ncn1C
Species: RAT, Strain/Sex: BD-IX/MALE, FEMALE, Route: ORAL, Dose: 0, 3, 5, 15 MG/KG/D IN DRINKING WATER 5D/WK FOR DURATION OF STUDY (STUDY DURATION: LIFETIME), Dose: 0, 3, 5, 15 MG/KG/D IN DRINKING WATER 5D/WK FOR DURATION OF STUDY (STUDY DURATION: LIFETIME), Tumor Site: Type of Lesion: NASAL CAVITY: TUMOR
  carcinogen call: active; positive

## O=P(O)(O)CCCl
Species: Mouse, Strain/Sex: CD-1 albino/Female (20 or 50/Group), Route: Oral, Dose: 0, 100, 1000, 10,000 ppm of 70.6-72.1% ethephon for 52 (20/Group) wks and 78 (50/Group) wks, Dose: 0, 100, 1000, 10,000 ppm of 70.6-72.1% ethephon for 52 (20/Group) wks and 78 (50/Group) wks
  carcinogen call: inactive; negative
Species: Mouse, Strain/Sex: CD-1 albino/Male (20 or 50/Group), Route: Oral, Dose: 0, 100, 1000, 10,000 ppm of 70.6-72.1% ethephon for 52 (20/Group) wks and 78 (50/Group) wks, Dose: 0, 100, 1000, 10,000 ppm of 70.6-72.1% ethephon for 52 (20/Group) wks and 78 (50/Group) wks
  carcinogen call: inactive; negative
Species: Rat, Strain/Sex: Sprague-Dawley CD/Female (30 or 50/Group), Route: Oral, Dose: 0, 300, 3000, 10,000, 30,000 ppm of 70.6-72.1% ethephon for 104 wks, study duration 104 wks, Dose: 0, 300, 3000, 10,000, 30,000 ppm of 70.6-72.1% ethephon for 104 wks, study duration 104 wks
  carcinogen call: inactive; negative
Species: Rat, Strain/Sex: Sprague-Dawley CD/Male (30 or 50/Group), Route: Oral, Dose: 0, 300, 3000, 10,000, 30,000 ppm of 70.6-72.1% ethephon for 97 wks, study duration 97 wks, Dose: 0, 300, 3000, 10,000, 30,000 ppm of 70.6-72.1% ethephon for 97 wks, study duration 97 wks
  carcinogen call: inactive; negative

## O=P(O)(OCC(Br)CBr)OCC(Br)CBr (centres undefined)
Species: RAT, Strain/Sex: WISTAR/FEMALE, Route: ORAL, Dose: 0, 80, 400, 2000 IN DIET FOR 24 MO (STUDY DURATION: 24 MO), Dose: 0, 80, 400, 2000 IN DIET FOR 24 MO (STUDY DURATION: 24 MO), Tumor Site: Type of Lesion: LIVER: HEPATOCELLULAR CARCINOMA, SMALL INTESTINE: ADENOCARCINOMA, FORESTOMACH: PAPILLOMA, ESOPHAGUS: PAPILLOMA, Tumor Site: Type of Lesion: LIVER: HEPATOCELLULAR CARCINOMA, SMALL INTESTINE: ADENOCARCINOMA, FORESTOMACH: PAPILLOMA, ESOPHAGUS: PAPILLOMA
  carcinogen call: active; positive
Species: RAT, Strain/Sex: WISTAR/MALE, Route: ORAL, Dose: 0, 80, 400, 2000 IN DIET FOR 24 MO (STUDY DURATION: 24 MO), Dose: 0, 80, 400, 2000 IN DIET FOR 24 MO (STUDY DURATION: 24 MO), Tumor Site: Type of Lesion: SMALL INTESTINE: ADENOCARCINOMA, FORESTOMACH: PAPILLOMA, ESOPHAGUS: PAPILLOMA, Tumor Site: Type of Lesion: SMALL INTESTINE: ADENOCARCINOMA, FORESTOMACH: PAPILLOMA, ESOPHAGUS: PAPILLOMA
  carcinogen call: active; positive

## CC(C)(c1ccc(O)cc1)c1ccc(O)cc1 (tested in a mixture with another compound)
Species: MOUSE, Strain/Sex: CF-1/FEMALE, Route: DERMAL, Dose: 0, 1, 10% EPIKOTE 828 IN ACETONE (TOTAL DOSE 0.2 ML) 2/WK APPLIED TO DORSAL SKIN FOR DURATION OF STUDY (STUDY DURATION:, Dose: 0, 1, 10% EPIKOTE 828 IN ACETONE (TOTAL DOSE 0.2 ML) 2/WK APPLIED TO DORSAL SKIN FOR DURATION OF STUDY (STUDY DURATION:, Tumor Site: Type of Lesion: HEMATOPOIETIC SYSTEM: RETICULUM-CELL SARCOMA, LYMPHOBLASTIC LYMPHOSARCOMA
  carcinogen call: active; positive
Species: MOUSE, Strain/Sex: CF-1/FEMALE, Route: DERMAL, Dose: 0, 1, 10% EPON 828 IN ACETONE (TOTAL DOSE 0.2 ML) 2/WK APPLIED TO DORSAL SKIN FOR DURATION OF STUDY (STUDY DURATION: 2 Y, Dose: 0, 1, 10% EPON 828 IN ACETONE (TOTAL DOSE 0.2 ML) 2/WK APPLIED TO DORSAL SKIN FOR DURATION OF STUDY (STUDY DURATION: 2 Y
  carcinogen call: inactive; negative
Species: MOUSE, Strain/Sex: CF-1/MALE, Route: DERMAL, Dose: 0, 1, 10% EPIKOTE 828 IN ACETONE (TOTAL DOSE 0.2 ML) 2/WK APPLIED TO DORSAL SKIN FOR DURATION OF STUDY (STUDY DURATION:, Dose: 0, 1, 10% EPIKOTE 828 IN ACETONE (TOTAL DOSE 0.2 ML) 2/WK APPLIED TO DORSAL SKIN FOR DURATION OF STUDY (STUDY DURATION:
  carcinogen call: inactive; negative
Species: MOUSE, Strain/Sex: CF-1/MALE, Route: DERMAL, Dose: 0, 1, 10% EPON 828 IN ACETONE (TOTAL DOSE 0.2 ML) 2/WK APPLIED TO DORSAL SKIN FOR DURATION OF STUDY (STUDY DURATION: 2 Y, Dose: 0, 1, 10% EPON 828 IN ACETONE (TOTAL DOSE 0.2 ML) 2/WK APPLIED TO DORSAL SKIN FOR DURATION OF STUDY (STUDY DURATION: 2 Y
  carcinogen call: inactive; negative
